{"source": "patent US9670172B2", "about": "“Heterocyclic compounds and methods of use” (Medivation Technologies, Inc., priority 2014, dated 2017)", "key": {"[1]": {"system": "SREBP2", "assay": "SREBP2 cleavage in HEPG2 cells (Western blot normalized to actin)", "assay_type": "cell-based", "settings": "Homo sapiens, read-out: Average SREBP2 cleavage (% Inhibition, n = 3)", "method": "Average SREBP2 cleavage in HEPG2 cells was measured in the presence of compounds disclosed in Table 1. HepG2 cells were seeded at 500,000 cells per well in 6-well plates in DMEM supplemented with 10% FBS. After 2 days, cells were treated with compounds (20 μM) for 1 day in DMEM without FBS. Western blots were normalized with respect to actin.\nThe results are shown in Table 3 as percent inhibition@20 μM, and in Table 4 as percent inhibition@5 μM."}, "[2]": {"assay": "HepG2 cell viability by MTS", "assay_type": "cell-based", "settings": "human; 20 μM, HepG2 cells, 3 days, DMEM without FBS, MTS; read-out: Average Viability (% Inhibition, n = 3)", "method": "For viability measurements, HepG2 cells were seeded at 5,000 cells per well in 96-well plates in DMEM supplemented with 10% FBS. After 1 day in culture, cells were treated with compounds (20 μM & 5 μM) for 3 days in DMEM without FBS. Viability was measured by MTS. Treatment with compounds (20 μM & 5 μM) was carried out in medium without FBS, and viability was measured by MTS. […]"}, "[3]": {"settings": "24 h, 20 μM, HepG2 cells, 1 day, DMEM without FBS"}}, "note": "Read-outs that look alike come from different tables or passages of the source.", "data": [{"smiles": "CCCc1cc(-c2nc(-c3ccc(NS(=O)(=O)C(F)(F)F)cc3)cs2)ccn1", "note": "[Compound 1, 1,1,1-trifluoro-N-(4-(2-(2-propylpyridin-4-yl)thiazol-4-yl)phenyl)methanesulfonamide]", "values": [{"measurement": "inhibition at 20 µM", "setting": "[1]; [3]", "result": 73.7, "unit": "%"}, {"measurement": "cytotoxicity at 3 days, 20 μM", "setting": "[2]", "result": 92.1, "unit": "%"}]}, {"smiles": "CCCc1cc(-c2nc(-c3cccc(NS(=O)(=O)C(F)(F)F)c3)cs2)ccn1", "note": "[Compound 2, 1,1,1-trifluoro-N-(3-(2-(2-propylpyridin-4-yl)thiazol-4-yl)phenyl)methanesulfonamide]", "values": [{"measurement": "inhibition at 20 µM", "setting": "[1]; HepG2, 24 h", "result": 73, "unit": "%"}, {"measurement": "cytotoxicity at 3 days, 20 μM", "setting": "[2]", "result": 80.5, "unit": "%"}]}, {"smiles": "CCCc1cc(-c2nc(-c3ccc(NS(=O)(=O)C(F)(F)F)cc3Cl)cs2)ccn1", "note": "[Compound 4, N-(3-chloro-4-(2-(2-propylpyridin-4-yl)thiazol-4-yl)phenyl)-1,1,1-trifluoromethanesulfonamide]", "values": [{"measurement": "inhibition at 20 µM", "setting": "[1]; HepG2, 24 h", "result": 96.1, "unit": "%"}, {"measurement": "cytotoxicity at 3 days, 20 μM", "setting": "[2]", "result": 94.4, "unit": "%"}]}, {"smiles": "COc1cc(-c2csc(-c3ccnc(CC(C)C)c3)n2)ccc1NS(=O)(=O)C(F)(F)F", "note": "[Compound 57, 1,1,1-trifluoro-N-(2-methoxy-4-{2-[2-(2-methylpropyl)pyridin-4-yl]-1,3-thiazol-4-yl}phenyl)methanesulfonamide]", "values": [{"measurement": "inhibition at 20 µM", "setting": "[1]; [3]", "result": 46.9, "unit": "%"}, {"measurement": "cytotoxicity at 3 days, 20 μM", "setting": "[2]", "result": 56.4, "unit": "%"}]}, {"smiles": "CCCc1cc(-c2nc(-c3ccc(NS(=O)(=O)C(F)(F)F)c(OC)c3)cs2)ccn1", "note": "[Compound 58, 1,1,1-trifluoro-N-{2-methoxy-4-[2-(2-propylpyridin-4-yl)-1,3-thiazol-4-yl]phenyl}methanesulfonamide]", "values": [{"measurement": "inhibition at 20 µM", "setting": "[1]; [3]", "result": 29.4, "unit": "%"}, {"measurement": "cytotoxicity at 3 days, 20 μM", "setting": "[2]", "result": 67.9, "unit": "%"}]}, {"smiles": "COc1cc(-c2csc(-c3ccnc(C(C)(C)C)c3)n2)ccc1NS(=O)(=O)C(F)(F)F", "note": "[Compound 59, N-(4-(2-(2-tert-butylpyridin-4-yl)thiazol-4-yl)-2-methoxyphenyl)-1,1,1-trifluoromethanesulfonamide]", "values": [{"measurement": "inhibition at 20 µM", "setting": "[1]; [3]", "result": 60.6, "unit": "%"}, {"measurement": "cytotoxicity at 3 days, 20 μM", "setting": "[2]", "result": 99.8, "unit": "%"}]}, {"smiles": "Nc1cc(-c2nc(-c3ccc(NS(=O)(=O)C(F)(F)F)cc3Cl)cs2)ccn1", "note": "[Compound 61, N-{4-[2-(2-aminopyridin-4-yl)-1,3-thiazol-4-yl]-3-chlorophenyl}-1,1,1-trifluoromethanesulfonamide]", "values": [{"measurement": "inhibition at 20 µM", "setting": "[1]; [3]", "result": 2, "unit": "%"}, {"measurement": "cytotoxicity at 3 days, 20 μM", "setting": "[2]", "result": 43, "unit": "%"}]}, {"smiles": "CS(=O)(=O)Nc1cc(-c2nc(-c3ccc(NS(=O)(=O)C(F)(F)F)cc3Cl)cs2)ccn1", "note": "[Compound 62, N-{3-chloro-4-[2-(2-methanesulfonamidopyridin-4-yl)-1,3-thiazol-4-yl]phenyl}-1,1,1-trifluoromethanesulfonamide]", "values": [{"measurement": "inhibition at 20 µM", "setting": "[1]; [3]", "result": 0, "unit": "%"}, {"measurement": "cytotoxicity at 3 days, 20 μM", "setting": "[2]", "result": 0, "unit": "%"}]}, {"smiles": "CCCc1cc(-c2nc(-c3ccc(NS(=O)(=O)C(F)(F)F)c(O)c3)cs2)ccn1", "note": "[Compound 63, 1,1,1-trifluoro-N-(2-hydroxy-4-(2-(2-propylpyridin-4-yl)thiazol-4-yl)phenyl)methanesulfonamide]", "values": [{"measurement": "inhibition at 20 µM", "setting": "[1]; [3]", "result": 39, "unit": "%"}, {"measurement": "cytotoxicity at 3 days, 20 μM", "setting": "[2]", "result": 47, "unit": "%"}]}, {"smiles": "O=S(=O)(Nc1ccc(-c2csc(-c3ccnc(NS(=O)(=O)C(F)(F)F)c3)n2)c(Cl)c1)C(F)(F)F", "note": "[Compound 66, N-{3-chloro-4-[2-(2-trifluoromethanesulfonamidopyridin-4-yl)-1,3-thiazol-4-yl]phenyl}-1,1,1-trifluoromethanesulfonamide]", "values": [{"measurement": "inhibition at 20 µM", "setting": "[1]; [3]", "result": 0, "unit": "%"}, {"measurement": "cytotoxicity at 3 days, 20 μM", "setting": "[2]", "result": 11, "unit": "%"}]}, {"smiles": "O=C(c1ccc(-c2nc(-c3ccc(NS(=O)(=O)C(F)(F)F)cc3Cl)cs2)cc1)N1CCCCC1", "note": "[Compound 67, N-(3-chloro-4-{2-[4-(piperidine-1-carbonyl)phenyl]-1,3-thiazol-4-yl}phenyl)-1,1,1-trifluoromethanesulfonamide]", "values": [{"measurement": "inhibition at 20 µM", "setting": "[1]; [3]", "result": 3, "unit": "%"}, {"measurement": "cytotoxicity at 3 days, 20 μM", "setting": "[2]", "result": 20, "unit": "%"}]}, {"smiles": "O=S(=O)(Nc1ccc(-c2csc(-c3c(F)cnc4[nH]ccc34)n2)c(Cl)c1)C(F)(F)F", "note": "[Compound 89, N-[3-chloro-4-(2-{5-fluoro-1H-pyrrolo[2,3-b]pyridin-4-yl}-1,3-thiazol-4-yl)phenyl]-1,1,1-trifluoromethanesulfonamide]", "values": [{"measurement": "inhibition at 5 µM", "setting": "[1]; 5 μM, HepG2 cells", "result": 53, "unit": "%"}]}]}
